Experiments:
human B1R receptor = molecular target: T1, human B1R receptor (Homo sapiens, UniProt P46663); assay: Functional study on the bradykinin receptor 1 (B1R), FLIPR Ca2+ assay, hB1R cells; format: cell-based; settings: CHO-K1, test substance 10 μM, agonist Lys-Des-Arg9-bradykinin 0.5 nM, % inhibition compared with the maximum achievable inhibition, read-out: B1R Antagonism, human [10 μM] % Inhibition
T1 construct: host or cells: CHO K1 cells (Chinese hamster ovary), stably transfected
T1 sequence (P46663 1-353): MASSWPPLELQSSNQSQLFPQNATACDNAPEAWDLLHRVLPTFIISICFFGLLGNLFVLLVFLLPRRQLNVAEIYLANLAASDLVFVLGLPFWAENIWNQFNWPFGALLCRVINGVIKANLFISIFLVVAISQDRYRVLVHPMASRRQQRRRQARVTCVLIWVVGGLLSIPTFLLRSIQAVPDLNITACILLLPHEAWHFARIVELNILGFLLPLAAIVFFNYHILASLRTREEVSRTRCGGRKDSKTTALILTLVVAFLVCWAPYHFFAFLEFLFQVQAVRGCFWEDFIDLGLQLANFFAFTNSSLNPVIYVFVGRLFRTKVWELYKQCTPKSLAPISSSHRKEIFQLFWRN
How it was run: (§1)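 Readout: peak Fluo-4 Ca2+ fluorescence, FLIPR. Stable CHO K1 hB1R or rB1R cells; cpd 10 μM, 10 min preincubation, then agonist (hB1R: Lys-Des-Arg9-BK 0.5 nM; rB1R: Des-Arg9-BK 100 nM). Value = % inhibition relative to maximal achievable inhibition.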

B1R receptor of the rat = molecular target: T2, B1R receptor of the rat (Rattus norvegicus, UniProt P97583); assay: Functional study on the bradykinin receptor 1 (B1R), FLIPR Ca2+ assay, rB1R cells; format: cell-based; settings: CHO-K1, test substance 10 μM, agonist Des-Arg9-bradykinin 100 nM, % inhibition compared with the maximum achievable inhibition, read-out: B1R Antagonism, rat [10 μM] % Inhibition
T2 construct: host or cells: CHO K1 cells (Chinese hamster ovary), stably transfected
T2 sequence (P97583 1-337): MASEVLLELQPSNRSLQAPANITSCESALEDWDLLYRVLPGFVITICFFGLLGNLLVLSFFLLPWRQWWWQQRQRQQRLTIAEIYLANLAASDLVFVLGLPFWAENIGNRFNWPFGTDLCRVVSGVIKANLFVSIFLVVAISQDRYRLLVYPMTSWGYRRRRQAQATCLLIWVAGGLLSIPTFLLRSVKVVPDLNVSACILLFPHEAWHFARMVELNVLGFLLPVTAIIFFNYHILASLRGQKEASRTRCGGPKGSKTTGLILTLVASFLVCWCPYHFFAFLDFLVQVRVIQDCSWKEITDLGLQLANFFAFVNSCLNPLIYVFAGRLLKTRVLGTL
How it was run: as §1

An inhibition at 10 µM (human B1R receptor) of 105% and an inhibition at 10 µM (B1R receptor of the rat) of 98.4% were found for COc1cc(C)c(S(=O)(=O)N2CCCC2COCC(=O)N2CCN(c3ccc(F)cc3)CC2)c(C)c1 (stereo not drawn) [Example 307, 1-(4-(4-fluorophenyl)piperazin-1-yl)-2-((1-(4-methoxy-2,6-dimethylphenylsulfonyl)pyrrolidin-2-yl)methoxy)ethanone] in this work.

An inhibition at 10 µM (human B1R receptor) of 95.6% and an inhibition at 10 µM (B1R receptor of the rat) of 89.9% were found for COc1cc(C)c(S(=O)(=O)N2CCCCC2COCC(=O)NCCN2CCN(C)CC2)c(C)c1 (stereo not drawn) [Example 248, 2-((1-(4-methoxy-2,6-dimethylphenylsulfonyl)piperidin-2-yl)methoxy)-N-(2-(4-methylpiperazin-1-yl)ethyl)acetamide] in this work.

An inhibition at 10 µM (human B1R receptor) of 40.6% and an inhibition at 10 µM (B1R receptor of the rat) of 99.5% were found for COc1cc(C)c(S(=O)(=O)N2CCCC2COCC(=O)Nc2ccc(N3CCOCC3)c(Cl)c2)c(C)c1 (stereo not drawn) [Example 493, N-(3-chloro-4-morpholinophenyl)-2-((1-(4-methoxy-2,6-dimethylphenylsulfonyl)pyrrolidin-2-yl)methoxy)acetamide] in this work.

An inhibition at 10 µM (human B1R receptor) of 101% and an inhibition at 10 µM (B1R receptor of the rat) of 101% were found for COc1cc(C)c(S(=O)(=O)N2CCCC2COCC(=O)N2CCCN(C)CC2)c(C)c1 (stereo not drawn) [Example 467, 2-((1-(4-methoxy-2,6-dimethylphenylsulfonyl)pyrrolidin-2-yl)methoxy)-1-(4-methyl-1,4-diazepan-1-yl)ethanone] in this work.

An inhibition at 10 µM (human B1R receptor) of 104% and an inhibition at 10 µM (B1R receptor of the rat) of 99.3% were found for O=C(COCC1CCCCN1S(=O)(=O)c1c(Cl)cccc1Cl)N1CCC(N2CCCC2)CC1 (stereo not drawn) [Example 443, 2-((1-(2,6-dichlorophenylsulfonyl)piperidin-2-yl)methoxy)-1-(4-(pyrrolidin-1-yl)piperidin-1-yl)ethanone] in this work.

An inhibition at 10 µM (human B1R receptor) of 43.7% and an inhibition at 10 µM (B1R receptor of the rat) of 0% were found for COc1ccc(N2CCN(C(=O)COCC3CCCCN3S(=O)(=O)c3ccc(Cl)c(Cl)c3)CC2)cc1 (stereo not drawn) [Example 84, 2-[1-(3,4-dichloro-phenylsulfonyl)-piperidin-2-ylmethoxy]-1-[4-(4-methoxy-phenyl)-piperazin-1-yl]-ethanone] in this work.

An inhibition at 10 µM (human B1R receptor) of 85.8% and an inhibition at 10 µM (B1R receptor of the rat) of 99.8% were found for COc1cc(C)c(S(=O)(=O)N2CCCC2COCC(=O)N2CCCC2Cc2cccc(C)n2)c(C)c1 (stereo not drawn) [Example 448, 2-((1-(4-methoxy-2,6-dimethylphenylsulfonyl)pyrrolidin-2-yl)methoxy)-1-(2-((6-methylpyridin-2-yl)methyl)pyrrolidin-1-yl)ethanone] in this work.

An inhibition at 10 µM (human B1R receptor) of 93.8% and an inhibition at 10 µM (B1R receptor of the rat) of 98.4% were found for COc1cc(C)c(S(=O)(=O)N2CCCCC2COCC(=O)N2CCN(c3ccc4c(N5CCCC5)ncnc4c3)CC2)c(C)c1 (stereo not drawn) [Example 168, 2-((1-(4-methoxy-2,6-dimethylphenylsulfonyl)piperidin-2-yl)methoxy)-1-(4-(4-(pyrrolidin-1-yl)quinazolin-7-yl)piperazin-1-yl)ethanone] in this work.

An inhibition at 10 µM (human B1R receptor) of 91.5% and an inhibition at 10 µM (B1R receptor of the rat) of 101% were found for CCN(CC)CCN(CC)C(=O)COCC1CCCCN1S(=O)(=O)c1c(C)cc(OC)cc1C (stereo not drawn) [Example 380, N-(2-(diethylamino)ethyl)-N-ethyl-2-((1-(4-methoxy-2,6-dimethylphenylsulfonyl)piperidin-2-yl)methoxy)acetamide] in this work.

An inhibition at 10 µM (human B1R receptor) of 69.6% and an inhibition at 10 µM (B1R receptor of the rat) of 0% were found for O=C(COCC1CCCN1S(=O)(=O)c1ccc(Cl)c(Cl)c1)N1CCN(Cc2ccc3c(c2)OCO3)CC1 (stereo not drawn) [Example 44, 1-(4-benzo[1,3]dioxol-5-ylmethyl-piperazin-1-yl)-2-[1-(3,4-dichloro-phenylsulfonyl)-pyrrolidin-2-ylmethoxy]-ethanone] in this work.

An inhibition at 10 µM (human B1R receptor) of 17.3% and an inhibition at 10 µM (B1R receptor of the rat) of 107% were found for COc1cc(C)c(S(=O)(=O)N2CCCCC2COCC(=O)NCc2ccc(N(C)C)cc2)c(C)c1 (stereo not drawn) [Example 577, N-(4-(dimethylamino)benzyl)-2-((1-(4-methoxy-2,6-dimethylphenylsulfonyl)piperidin-2-yl)methoxy)acetamide] in this work.

An inhibition at 10 µM (human B1R receptor) of 75% and an inhibition at 10 µM (B1R receptor of the rat) of 65.4% were found for O=C(COCC1Cc2ccccc2CN1S(=O)(=O)c1ccc(Cl)c(Cl)c1)N1CCC(N2CCCC2)CC1 (stereo not drawn) [Example 38, 2-((2-(3,4-dichlorophenylsulfonyl)-1,2,3,4-tetrahydroisoquinolin-3-yl)methoxy)-1-(4-(pyrrolidin-1-yl)piperidin-1-yl)ethanone] in this work.

An inhibition at 10 µM (human B1R receptor) of 80.7% and an inhibition at 10 µM (B1R receptor of the rat) of 99.2% were found for COc1ccc(CN2CCN(C(=O)COCC3CCCN3S(=O)(=O)c3c(Cl)cccc3Cl)CC2)cc1 (stereo not drawn) [Example 451, 2-((1-(2,6-dichlorophenylsulfonyl)pyrrolidin-2-yl)methoxy)-1-(4-(4-methoxybenzyl)piperazin-1-yl)ethanone] in this work.

An inhibition at 10 µM (human B1R receptor) of 93.5% and an inhibition at 10 µM (B1R receptor of the rat) of 103% were found for CCc1ccc(CC2CCCN2C(=O)COCC2CCCN2S(=O)(=O)c2c(C)cc(OC)cc2C)nc1 (stereo not drawn) [Example 490, 1-(2-((5-ethylpyridin-2-yl)methyl)pyrrolidin-1-yl)-2-((1-(4-methoxy-2,6-dimethylphenylsulfonyl)pyrrolidin-2-yl)methoxy)ethanone] in this work.

An inhibition at 10 µM (human B1R receptor) of 65.7% and an inhibition at 10 µM (B1R receptor of the rat) of 50.3% were found for Cc1cc(C)c(S(=O)(=O)N2Cc3ccccc3CC2COCC(=O)NCc2cccc(N3CCOCC3)c2)c(C)c1 (stereo not drawn) [Example 50, N-(3-morpholin-4-yl-benzyl)-2-[2-(2,4,6-trimethyl-phenylsulfonyl)-1,2,3,4-tetrahydro-isoquinolin-3-ylmethoxy]-acetamide] in this work.

An inhibition at 10 µM (human B1R receptor) of 45.7% and an inhibition at 10 µM (B1R receptor of the rat) of 35.2% were found for CN(C(=O)COCC1Cc2ccccc2CN1S(=O)(=O)c1ccc(Cl)cc1Cl)C1CCN(Cc2ccccc2)C1 (stereo not drawn) [Example 78, N-(1-benzyl-pyrrolidin-3-yl)-2-[2-(2,4-dichloro-phenylsulfonyl)-1,2,3,4-tetrahydro-isoquinolin-3-ylmethoxy]-N-methyl-acetamide] in this work.

An inhibition at 10 µM (human B1R receptor) of 103% and an inhibition at 10 µM (B1R receptor of the rat) of 99.7% were found for COc1cc(C)c(S(=O)(=O)N2CCCC2COCC(=O)N2CCC(N3CCCC3)CC2)c(C)c1 (stereo not drawn) [Example 518, 2-((1-(4-methoxy-2,6-dimethylphenylsulfonyl)pyrrolidin-2-yl)methoxy)-1-(4-(pyrrolidin-1-yl)piperidin-1-yl)ethanone] in this work.

An inhibition at 10 µM (human B1R receptor) of 95.3% and an inhibition at 10 µM (B1R receptor of the rat) of 110% were found for COc1cc(C)c(S(=O)(=O)N2CCCC2COCC(=O)NCc2ccc(N3CCN(C)CC3)cc2)c(C)c1 (stereo not drawn) [Example 18, 2-[1-(4-methoxy-2,6-dimethyl-phenylsulfonyl)-pyrrolidin-2-ylmethoxy]-N-[4-(4-methyl-piperazin-1-yl)-benzyl]-acetamide] in this work.

An inhibition at 10 µM (human B1R receptor) of 85.4% and an inhibition at 10 µM (B1R receptor of the rat) of 97.7% were found for Cc1cc(C)c(S(=O)(=O)N2CCCCC2COCC(=O)N2CCCC2CN2CCCCC2)c(C)c1 (stereo not drawn) [Example 27, 1-(2-piperidin-1-ylmethyl-pyrrolidin-1-yl)-2-[1-(2,4,6-trimethyl-phenylsulfonyl)-piperidin-2-ylmethoxy]-ethanone] in this work.

An inhibition at 10 µM (human B1R receptor) of 86.8% and an inhibition at 10 µM (B1R receptor of the rat) of 4.56% were found for O=C(COCC1CCCCN1S(=O)(=O)c1ccc(Cl)c(Cl)c1)N1CCC(N2CCCC2)CC1 (stereo not drawn) [Example 26, 2-[1-(3,4-dichloro-phenylsulfonyl)-piperidin-2-ylmethoxy]-1-(4-pyrrolidin-1-yl-piperidin-1-yl)-ethanone] in this work.

An inhibition at 10 µM (human B1R receptor) of 101% and an inhibition at 10 µM (B1R receptor of the rat) of 99.1% were found for COc1cc(C)c(S(=O)(=O)N2CCCC2COCC(=O)N2CCN(c3ccccc3)CC2)c(C)c1 (stereo not drawn) [Example 461, 2-((1-(4-methoxy-2,6-dimethylphenylsulfonyl)pyrrolidin-2-yl)methoxy)-1-(4-phenylpiperazin-1-yl)ethanone] in this work.

An inhibition at 10 µM (human B1R receptor) of 44.9% and an inhibition at 10 µM (B1R receptor of the rat) of 34.1% were found for O=C(COCC1Cc2ccccc2N1S(=O)(=O)c1ccc(Cl)c(Cl)c1)NCc1ccc(CN2CCCC2)cc1 (stereo not drawn) [Example 81, 2-[1-(3,4-dichloro-phenylsulfonyl)-2,3-dihydro-1H-indol-2-ylmethoxy]-N-(4-pyrrolidin-1-ylmethyl-benzyl)-acetamide] in this work.

An inhibition at 10 µM (human B1R receptor) of 54.1% and an inhibition at 10 µM (B1R receptor of the rat) of 0% were found for O=C(COCC1CCCCN1S(=O)(=O)c1ccc(Cl)c(Cl)c1)N1CCN(CC2CCCCC2)CC1 (stereo not drawn) [Example 68, 1-(4-cyclohexylmethyl-piperazin-1-yl)-2-[1-(3,4-dichloro-phenylsulfonyl)-piperidin-2-ylmethoxy]-ethanone] in this work.

An inhibition at 10 µM (human B1R receptor) of 104% and an inhibition at 10 µM (B1R receptor of the rat) of 101% were found for O=C(COCC1CCCN1S(=O)(=O)c1c(Cl)cc(Cl)cc1Cl)NCC1CCCN(Cc2ccccc2)C1 (stereo not drawn) [Example 327, N-((1-benzylpiperidin-3-yl)methyl)-2-((1-(2,4,6-trichlorophenylsulfonyl)pyrrolidin-2-yl)methoxy)acetamide] in this work.

Reference: patent publication US8435978B2, “Substituted sulfonamide compounds” (Gruenenthal GmbH, priority 2006, dated 2013)
